According to patent US20070154965A1, “Chlorotoxin-labeled nanoparticle compositions and methods for targeting primary brain tumors” (priority 2005, published 2007):

System: 9L cells
Test: Transwell migration (matrigel invasion) assay
Assay type: cell-based, rat
Details: 4 μg/ml free chlorotoxin, 24 hrs
Protocol: Transwell migration assay. The assay was performed by a method reported previously to assess the bioactivity of chlorotoxin. See Deshane et al., J. Biol. Chem. 2003, 278:4135-4144, expressly incorporated herein in its entirety. Prior to the experiment, matrigel invasion chamber inserts (BD Biosciences, Bedford, Mass.) of 8 μm pore size were rehydrated. The lower surfaces of the chamber inserts were immersed in 5 μg/ml solution of vitronectin for 8 hours. 9L cells were then plated at a density of 2.5×10^5 cells per chamber. Cells were treated with solutions of 4 μg/ml of chlorotoxin, and 10 μg Fe/ml of NPCs, respectively. The chambers were then incubated in a 37° C. humidified incubator maintained at 5% CO2 for 24 hrs. The cells on the upper inserts were scrubbed off, and the invaded cells were fixed and stained with Diff-Quik stain kit (IMEB INC., Chicago, Ill.). The filters were then detached from the inserts and mounted on glass slides using immersion oil and imaged on a Nikon E800 upright microscope. Relative inhibition of cell invasion was determined through reduction of migrating cells in presence of chlorotoxin and NPCs. Triplicates of each sample were prepared and cell counts were obtained from five random spots on each filter. The data was then averaged and presented as a relative number of invasive cells per treatment.

chlorotoxin
inhibition of cell invasion: approximately 88%
